Reference: PubChem BioAssay AID651592 (Sanford-Burnham Center for Chemical Genomics, 2012)
One block for each compound: values may come before it.

Experiments:
[1] = inhibitors of NFkB activation in CF airway cells, SAR follow-up, KKLEB cells, panel, IL8 HTRF, NFkB-GFP (AID 651592); conditions: PAF/TNFa-induced NFkB-GFP / IL8 HTRF, CF-PAF assay;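 further: immortalized cystic fibrosis airway epithelial KKLEB cells with an NF-kB GFP reporter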
[2] = system: IL8; experiment: as above; conditions: PAF/TNFa-induced NFkB-GFP / IL8 HTRF, mean of runs, mean IC50 across panel replicates
[3] = molecular target: Interleukin-8 (Homo sapiens) (UniProt P10145); experiment: as above; conditions: PAF/TNFa-induced NFkB-GFP / IL8 HTRF
[4] = mean of runs, mean IC50 across panel replicates

Chain of Interleukin-8 (Homo sapiens) (P10145 whole entry, looked up): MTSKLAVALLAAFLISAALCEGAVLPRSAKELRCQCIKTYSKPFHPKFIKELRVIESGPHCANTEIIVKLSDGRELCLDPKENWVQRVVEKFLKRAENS

IC50 [1, 4]: 25.3 µM
IC50 ([1]; run 1): 3.68 µM
IC50 ([1]; run 2): 4.18 µM
IC50 ([1]; run 3): 4.81 µM
IC50 ([1]; run 4): > 66 µM
IC50 ([1]; run 5): > 66 µM
IC50 ([1]; run 6): 7.26 µM
IC50 ([2]; PAF-induced): > 66 µM
IC50 ([2]; TNFa-induced): > 66 µM
IC50 ([3]; IL8, PAF-induced, run 1): > 66 µM
IC50 ([3]; IL8, PAF-induced, run 2): > 66 µM
IC50 ([3]; IL8, PAF-induced, run 3): > 66 µM
IC50 ([3]; IL8, PAF-induced, run 4): > 66 µM
IC50 ([3]; IL8, PAF-induced, run 5): > 66 µM
IC50 ([3]; IL8, PAF-induced, run 6): > 66 µM
IC50 ([3]; IL8, TNFa-induced, run 1): > 66 µM
IC50 ([3]; IL8, TNFa-induced, run 2): > 66 µM
IC50 ([3]; IL8, TNFa-induced, run 3): > 66 µM
IC50 ([3]; IL8, TNFa-induced, run 4): > 66 µM
IC50 ([3]; IL8, TNFa-induced, run 5): > 66 µM
IC50 ([3]; IL8, TNFa-induced, run 6): > 66 µM
Structure (SMILES): O=C(Nc1ccc(N2CCN(C(=O)c3ccccc3Cl)CC2)cc1)c1cccnc1

IC50 [1, 4]: 45.7 µM
IC50 ([1]; run 1): 32.5 µM
IC50 ([1]; run 2): 40.3 µM
IC50 ([1]; run 3): 64.3 µM
IC50 ([1]; run 4): > 66 µM
IC50 ([1]; run 5): > 66 µM
IC50 ([1]; run 6): > 66 µM
IC50 ([2]; PAF-induced): > 66 µM
IC50 ([2]; TNFa-induced): > 66 µM
IC50 ([3]; IL8, PAF-induced, run 1): > 66 µM
IC50 ([3]; IL8, PAF-induced, run 2): > 66 µM
IC50 ([3]; IL8, PAF-induced, run 3): > 66 µM
IC50 ([3]; IL8, PAF-induced, run 4): > 66 µM
IC50 ([3]; IL8, PAF-induced, run 5): > 66 µM
IC50 ([3]; IL8, PAF-induced, run 6): > 66 µM
IC50 ([3]; IL8, TNFa-induced, run 1): > 66 µM
IC50 ([3]; IL8, TNFa-induced, run 2): > 66 µM
IC50 ([3]; IL8, TNFa-induced, run 3): > 66 µM
IC50 ([3]; IL8, TNFa-induced, run 4): > 66 µM
IC50 ([3]; IL8, TNFa-induced, run 5): > 66 µM
IC50 ([3]; IL8, TNFa-induced, run 6): > 66 µM
Structure (SMILES): O=C(Nc1ccc(N2CCN(C(=O)c3ccccc3F)CC2)cc1)c1ccccn1

IC50 [1, 4]: > 66 µM
IC50 ([1]; run 1): > 66 µM
IC50 ([1]; run 2): > 66 µM
IC50 ([1]; run 3): > 66 µM
IC50 ([1]; run 4): > 66 µM
IC50 ([1]; run 5): > 66 µM
IC50 ([1]; run 6): > 66 µM
IC50 ([2]; PAF-induced): > 66 µM
IC50 ([2]; TNFa-induced): > 66 µM
IC50 ([3]; IL8, PAF-induced, run 1): > 66 µM
IC50 ([3]; IL8, PAF-induced, run 2): > 66 µM
IC50 ([3]; IL8, PAF-induced, run 3): > 66 µM
IC50 ([3]; IL8, PAF-induced, run 4): > 66 µM
IC50 ([3]; IL8, PAF-induced, run 5): > 66 µM
IC50 ([3]; IL8, PAF-induced, run 6): > 66 µM
IC50 ([3]; IL8, TNFa-induced, run 1): > 66 µM
IC50 ([3]; IL8, TNFa-induced, run 2): > 66 µM
IC50 ([3]; IL8, TNFa-induced, run 3): > 66 µM
IC50 ([3]; IL8, TNFa-induced, run 4): > 66 µM
IC50 ([3]; IL8, TNFa-induced, run 5): > 66 µM
IC50 ([3]; IL8, TNFa-induced, run 6): > 66 µM
Structure (SMILES): O=C(Nc1ccc(N2CCN(C(=O)c3ccc(F)cc3)CC2)cc1)c1ccncc1

Further lines, the compound ahead of its results:

Structure (SMILES): O=C(Nc1ccc(N2CCN(C(=O)c3ccccc3Cl)CC2)cc1)c1cncc(Br)c1
IC50 [1, 4]: 2.74 µM
IC50 ([1]; run 1): 1.98 µM
IC50 ([1]; run 2): 2.48 µM
IC50 ([1]; run 3): 2.61 µM
IC50 ([1]; run 4): 2.72 µM
IC50 ([1]; run 5): 2.99 µM
IC50 ([1]; run 6): 3.67 µM
IC50 ([2]; PAF-induced): 8.85 µM
IC50 ([2]; TNFa-induced): 16.1 µM
IC50 ([3]; IL8, PAF-induced, run 1): 7.62 µM
IC50 ([3]; IL8, PAF-induced, run 2): 8.41 µM
IC50 ([3]; IL8, PAF-induced, run 3): 11.1 µM
IC50 ([3]; IL8, PAF-induced, run 4): 3.16 µM
IC50 ([3]; IL8, PAF-induced, run 5): 5.73 µM
IC50 ([3]; IL8, PAF-induced, run 6): 17 µM
IC50 ([3]; IL8, TNFa-induced, run 1): 0.275 µM
IC50 ([3]; IL8, TNFa-induced, run 2): 2.14 µM
IC50 ([3]; IL8, TNFa-induced, run 3): 5.45 µM
IC50 ([3]; IL8, TNFa-induced, run 4): > 66 µM
IC50 ([3]; IL8, TNFa-induced, run 5): 8.3 µM
IC50 ([3]; IL8, TNFa-induced, run 6): 14.3 µM

Structure (SMILES): O=C(Nc1ccc(N2CCN(C(=O)c3ccccc3)CC2)cc1)c1ccncc1
IC50 [1, 4]: 39.7 µM
IC50 ([1]; run 1): 32.7 µM
IC50 ([1]; run 2): 38.2 µM
IC50 ([1]; run 3): 48.1 µM
IC50 ([1]; run 4): > 66 µM
IC50 ([1]; run 5): > 66 µM
IC50 ([1]; run 6): > 66 µM
IC50 ([2]; PAF-induced): 55.8 µM
IC50 ([2]; TNFa-induced): > 66 µM
IC50 ([3]; IL8, PAF-induced, run 1): > 66 µM
IC50 ([3]; IL8, PAF-induced, run 2): > 66 µM
IC50 ([3]; IL8, PAF-induced, run 3): 4.58 µM
IC50 ([3]; IL8, PAF-induced, run 4): > 66 µM
IC50 ([3]; IL8, PAF-induced, run 5): > 66 µM
IC50 ([3]; IL8, PAF-induced, run 6): > 66 µM
IC50 ([3]; IL8, TNFa-induced, run 1): > 66 µM
IC50 ([3]; IL8, TNFa-induced, run 2): > 66 µM
IC50 ([3]; IL8, TNFa-induced, run 3): > 66 µM
IC50 ([3]; IL8, TNFa-induced, run 4): > 66 µM
IC50 ([3]; IL8, TNFa-induced, run 5): > 66 µM
IC50 ([3]; IL8, TNFa-induced, run 6): > 66 µM

Structure (SMILES): CCOc1ccc(NCc2cc3c(C(C)(C)C)nn(-c4ccccc4)c3[nH]c2=O)cc1
IC50 [1, 4]: 25.5 µM
IC50 ([1]; run 1): 12.8 µM
IC50 ([1]; run 2): 20.1 µM
IC50 ([1]; run 3): 22.3 µM
IC50 ([1]; run 4): > 66 µM
IC50 ([1]; run 5): 13 µM
IC50 ([1]; run 6): 19 µM
IC50 ([2]; PAF-induced): 4 µM
IC50 ([2]; TNFa-induced): > 66 µM
IC50 ([3]; IL8, PAF-induced, run 1): 2.61 µM
IC50 ([3]; IL8, PAF-induced, run 2): 3.3 µM
IC50 ([3]; IL8, PAF-induced, run 3): 3.37 µM
IC50 ([3]; IL8, PAF-induced, run 4): 4.49 µM
IC50 ([3]; IL8, PAF-induced, run 5): 4.57 µM
IC50 ([3]; IL8, PAF-induced, run 6): 5.68 µM
IC50 ([3]; IL8, TNFa-induced, run 1): > 66 µM
IC50 ([3]; IL8, TNFa-induced, run 2): > 66 µM
IC50 ([3]; IL8, TNFa-induced, run 3): > 66 µM
IC50 ([3]; IL8, TNFa-induced, run 4): > 66 µM
IC50 ([3]; IL8, TNFa-induced, run 5): > 66 µM
IC50 ([3]; IL8, TNFa-induced, run 6): > 66 µM
